The subject of data set [1] is patients with severe CRF (breast cancer or prostate cancer). Description: randomized, double-blind, placebo-controlled study of taltirelin in idiopathic cancer-related fatigue. It counts as in vivo, human. The conditions noted are these: 10 mg vs placebo; after 6 weeks of treatment. The method, then: Patient Selection. Patients with a diagnosis of cancer, in this study, breast cancer, or prostate cancer, are screened for CRF using a brief fatigue inventory (BFI) in an oncology clinic setting. The BFI is a simple 9-item self-administered scale and requires about 5-10 minutes to complete. Patients experiencing a severe level of fatigue (BFI≧7) are identified based on this screening. […]
Both groups undergo a comprehensive assessment to investigate different aspects of fatigue. […] Patients are also evaluated for two major psychiatric disorders frequently co-occurring with CRF, depressive disorders and anxiety disorders. […]
In the intervention phase of the study, patients receive study medication or placebo based on their group assignments. […] Patients are assessed for their overall status using the clinical global impressions severity of illness scale (CGI-S) at randomization, at week 4 and at the end of the intervention phase. They are also assessed for any global improvement using clinical global impressions improvement scale (CGI-I) at week 4 and at the end of intervention phase. […]

Data set [2] has the same test system. Description: double-blind, placebo-controlled crossover study of intravenous TRH infusions in idiopathic cancer-related fatigue. It counts as in vivo, human. The protocol: Patient Selection. Patients with a diagnosis of cancer, in this study, breast cancer; or prostate cancer, are screened for CRF using a brief fatigue inventory (BFI) in an oncology clinic setting. The BFI is a simple 9-item self-administered scale and requires about 5-10 minutes to complete. Patients experiencing a severe level of fatigue (BFI≧7) are identified based on this screening. These patients then undergo additional screening with a comprehensive interview and laboratory assessments (hemoglobin, hematocrit, thyroid stimulating hormone concentration, and electrolytes) to identify and exclude patients with medically reversible or other treatable causes of fatigue (viz. anemia, hypothyroidism, electrolyte abnormalities, significant pain dominating the CRF presentation). […]
The patients selected undergo a comprehensive assessment to investigate different aspects of fatigue. […] Patients are evaluated for two major psychiatric disorders frequently co-occurring with CRF, depressive disorders and anxiety disorders. […]
The study utilizes a double-blind, placebo-controlled crossover design. […], patients are evaluated in the General Clinical Research Unit (GCRC) of the John Dempsey Hospital and receive intravenous infusions of TRH (0.5 mg for the first active drug trial, 1.5 mg for the second active drug trial) or saline in random order following an ABBA crossover design. […]

Data set [3] relates to patients with spinocerebellar degeneration (SCD). The conditions noted are these: cited from earlier work.

With taltirelin, in data set [1], the “improving cancer related fatigue, change from baseline in mean fatigue scores assessed using BFI and MFI” value is on record as “superior to placebo”; the “improving quality of life, change from baseline in mean quality of life scores assessed using SF-36” value is “superior to placebo”.

Turning to `NC(=O)[C@@H]1CCCN1C(=O)[C@H](Cc1cnc[nH]1)NC(=O)[C@@H]1CCC(=O)N1` [TRH, L-pyroglutamyl-L-histidyl-L-prolineamide], the “improving cancer related fatigue, change from baseline in mean fatigue scores assessed using the BFI and MFI” value in data set [2] (TRH 0.5 mg or 1.5 mg infusion vs placebo (saline), each comparison point during 4 week treatment intervention phase) was “superior to placebo”. Also, the “improving quality of life, change from baseline in mean quality of life scores assessed using SF-36” value in data set [2] (TRH 0.5 mg or 1.5 mg vs placebo, of treatment) is “superior to placebo”.

For `CN1C(=O)C[C@@H](C(=O)N[C@@H](Cc2c[nH]cn2)C(=O)N2CCC[C@H]2C(N)=O)NC1=O` [taltirelin], the “safety record and side effect profile” value in data set [3] (Phase III clinical trials and post-marketing surveillance in Japan) is recorded as “excellent safety record”. Further, the “efficacy in the treatment of spinocerebellar degeneration (SCD)” value in data set [3] (SCD patients) is “some efficacy”.

Source of the values: US7462595B2, “Methods for treating cancer-related fatigue” (priority 2004, dated 2008).
